Measurements as given in patent publication US20060111385A1, “Novel 4-phenyl substituted tetrahydroisoquinolines and therapeutic use thereof” (priority 2004, published 2006).
Counter-ions that a name gives are not always drawn.

Test system: not given
Settings: not given

SMILES	melting point [°C]
CN1Cc2c(ccc3ccoc23)C(c2ccc(F)cc2)C1 (stereo not shown) (as salt: hydrochloride)	242 to 257
CN1Cc2c(ccc3ccoc23)C(c2cc(F)cc(F)c2)C1 (stereo not shown) (as salt: hydrochloride)	233 to 236
CN1Cc2c(ccc3ccoc23)C(c2ccccc2)C1 (single isomer, unassigned)	81 to 83
Cc1ccc(C2CN(C)Cc3c2ccc2ccoc32)cc1 (single isomer, unassigned) (as salt: hydrochloride)	240 to 246
CN1Cc2c(ccc3ccoc23)C(c2ccccc2)C1 (single isomer, unassigned) (as salt: maleate)	165 to 168
Cc1ccc(C2CN(C)Cc3c2ccc2ccoc32)cc1 (single isomer, unassigned) (as salt: maleate)	190 to 191

Test system: dopamine transporter protein over the norepinephrine transporter protein
Settings: selectivity for dopamine transporter protein over norepinephrine transporter protein; cited from earlier work

SMILES	DAT/NET Ki ratio
COC(=O)C(c1ccccc1)C1CCCCN1 (stereo not shown) [Methylphenidate, methylphenidate]	0.1
